Laboratory results from ChEMBL document CHEMBL4311942, “Design of Trp-Rich Dodecapeptides with Broad-Spectrum Antimicrobial Potency and Membrane-Disruptive Mechanism” (J Med Chem, 2019).
≈ marks a conversion by molar mass, not a printed value. Where a SMILES comes first, the peptide text is derived from it.

Tests used:
[1] = system: Staphylococcus aureus; test: Antibacterial activity against Staphylococcus aureus ATCC 25923 incubated for 18 to 24 hrs by broth microdilution method; type: functional
[2] = system: Staphylococcus aureus; test: Antibacterial activity against Staphylococcus aureus ATCC 29213 incubated for 18 to 24 hrs by broth microdilution method; type: functional
[3] = system: Salmonella typhimurium; test: Antibacterial activity against Salmonella enterica serovar typhimurium C77-31 incubated for 18 to 24 hrs by broth microdilution method; type: functional, Salmonella enterica subsp. enterica serovar Typhimurium
[4] = system: Escherichia coli; test: Antibacterial activity against Escherichia coli UB1005 incubated for 18 to 24 hrs by broth microdilution method; type: functional
[5] = system: Escherichia coli; test: Antibacterial activity against Escherichia coli ATCC 25922 incubated for 18 to 24 hrs by broth microdilution method; type: functional
[6] = system: Staphylococcus epidermidis; test: Antibacterial activity against Staphylococcus epidermidis ATCC 12228 incubated for 18 to 24 hrs by broth microdilution method; type: functional
[7] = system: Escherichia coli; test: Antibacterial activity against Escherichia coli 20411 clinical isolate incubated for 18 to 24 hrs by broth microdilution method; type: functional
[8] = system: Acinetobacter baumannii; test: Antibacterial activity against Acinetobacter baumannii AB1901 clinical isolate incubated for 18 to 24 hrs by broth microdilution method; type: functional
[9] = system: Acinetobacter baumannii; test: Antibacterial activity against Acinetobacter baumannii AB1902 clinical isolate incubated for 18 to 24 hrs by broth microdilution method; type: functional
[10] = system: Pseudomonas aeruginosa; test: Antibacterial activity against Pseudomonas aeruginosa 25349 clinical isolate incubated for 18 to 24 hrs by broth microdilution method; type: functional
[11] = system: Staphylococcus aureus; test: Antibacterial activity against Staphylococcus aureus 11011 incubated for 18 to 24 hrs by broth microdilution method; type: functional
[12] = system: Erythrocyte; test: Haemolytic activity in human erythrocytes assessed as lowest concentration causing 5% hemolysis after 1 hr; type: ADME, cell-based
[13] = Therapeutic index, ratio of MHC for human RBC to geometric mean of peptide MIC for Escherichia coli ATCC 25922; type: toxicity; conditions: pooled result: one value given for 6 cell lines, strains, targets or settings, read-out: TI
[14] = Cytotoxicity against mouse RAW264.7 cells assessed as cell survival at < 32 uM after 24 hrs by MTT assay; type: cell-based; conditions: read-out: Activity

| Compound | MIC [1] [µM] | MIC [2] [µM] | MIC [3] [µM] | MIC [4] [µM] | MIC [5] [µM] | MIC [6] [µM] | MIC [7] [µM] | MIC [8] [µM] | MIC [9] [µM] | MIC [10] [µM] | MIC [11] [µM] | MHC [12] [µM] | selectivity ratio [13] | viability at 24 h [14] [%] |
| --- | --- | --- | --- | --- | --- | --- | --- | --- | --- | --- | --- | --- | --- | --- |
| CC(C)C[C@H](NC(=O)[C@H](CCCCN)NC(=O)[C@H](Cc1c[nH]c2ccccc12)NC(=O)[C@H](CCCCN)NC(=O)[C@H](CC(C)C)NC(=O)[C@H](CCCCN)NC(=O)[C@H](Cc1c[nH]c2ccccc12)NC(=O)[C@H](CCCCN)NC(=O)[C@H](CC(C)C)NC(=O)[C@H](CCCCN)NC(=O)[C@@H](N)Cc1c[nH]c2ccccc12)C(=O)N[C@@H](CCCCN)C(N)=O (H-WKLKWKLKWKLK-NH2) | 2 (≈ 3.37 µg/mL) | 2 (≈ 3.37 µg/mL) | 2 (≈ 3.37 µg/mL) | 4 (≈ 6.74 µg/mL) | 4 (≈ 6.74 µg/mL) | 2 (≈ 3.37 µg/mL) | 2 (≈ 3.37 µg/mL) | 2 (≈ 3.37 µg/mL) | 4 (≈ 6.74 µg/mL) | 4 (≈ 6.74 µg/mL) | 2 (≈ 3.37 µg/mL) | 128 | 50.8 | > 90 |
| CC[C@H]1OC(=O)[C@H](C)[C@@H](O[C@H]2C[C@@](C)(OC)[C@@H](O)[C@H](C)O2)[C@H](C)[C@@H](O[C@@H]2O[C@H](C)C[C@H](N(C)C)[C@H]2O)[C@](C)(O)C[C@@H](C)C(=O)[C@H](C)[C@@H](O)[C@]1(C)O [ERYTHROMYCIN] | 0.5 (≈ 0.367 µg/mL) | 0.5 (≈ 0.367 µg/mL) | 32 (≈ 23.5 µg/mL) | 32 (≈ 23.5 µg/mL) | 32 (≈ 23.5 µg/mL) | 0.25 (≈ 0.183 µg/mL) | 64 (≈ 47 µg/mL) | > 128 | > 128 | 128 (≈ 93.9 µg/mL) | 1 (≈ 0.734 µg/mL) | – | – | – |
| CN[C@H](CC(C)C)C(=O)N[C@H]1C(=O)N[C@@H](CC(N)=O)C(=O)N[C@H]2C(=O)N[C@H]3C(=O)N[C@H](C(=O)N[C@H](C(=O)O)c4cc(O)cc(O)c4-c4cc3ccc4O)[C@H](O)c3ccc(c(Cl)c3)Oc3cc2cc(c3O[C@@H]2O[C@H](CO)[C@@H](O)[C@H](O)[C@H]2O[C@H]2C[C@](C)(N)[C@H](O)[C@H](C)O2)Oc2ccc(cc2Cl)[C@H]1O [VANCOMYCIN] | 0.5 (≈ 0.725 µg/mL) | 0.5 (≈ 0.725 µg/mL) | 128 (≈ 186 µg/mL) | 128 (≈ 186 µg/mL) | 128 (≈ 186 µg/mL) | 0.5 (≈ 0.725 µg/mL) | 64 (≈ 92.8 µg/mL) | > 128 | > 128 | > 128 | 0.25 (≈ 0.362 µg/mL) | – | – | – |

More lines, main results first:

| MIC [1] [µM] | MIC [2] [µM] | MIC [3] [µM] | MIC [4] [µM] | MIC [5] [µM] | MIC [6] [µM] | MIC [7] [µM] | MIC [8] [µM] | MIC [9] [µM] | MIC [10] [µM] | MIC [11] [µM] | Compound | MHC [12] [µM] | selectivity ratio [13] | viability at 24 h [14] [%] |
| --- | --- | --- | --- | --- | --- | --- | --- | --- | --- | --- | --- | --- | --- | --- |
| 2 (≈ 3.7 µg/mL) | 1 (≈ 1.85 µg/mL) | 2 (≈ 3.7 µg/mL) | 2 (≈ 3.7 µg/mL) | 4 (≈ 7.41 µg/mL) | 2 (≈ 3.7 µg/mL) | 2 (≈ 3.7 µg/mL) | 2 (≈ 3.7 µg/mL) | 4 (≈ 7.41 µg/mL) | 4 (≈ 7.41 µg/mL) | 1 (≈ 1.85 µg/mL) | CC(C)C[C@H](NC(=O)[C@H](CCCNC(=N)N)NC(=O)[C@H](Cc1c[nH]c2ccccc12)NC(=O)[C@H](CCCNC(=N)N)NC(=O)[C@H](CC(C)C)NC(=O)[C@H](CCCNC(=N)N)NC(=O)[C@H](Cc1c[nH]c2ccccc12)NC(=O)[C@H](CCCNC(=N)N)NC(=O)[C@H](CC(C)C)NC(=O)[C@H](CCCNC(=N)N)NC(=O)[C@@H](N)Cc1c[nH]c2ccccc12)C(=O)N[C@@H](CCCNC(=N)N)C(N)=O (H-WRLRWRLRWRLR-NH2) | > 128 | 128 | > 90 |
| 2 (≈ 3.68 µg/mL) | 2 (≈ 3.68 µg/mL) | 4 (≈ 7.36 µg/mL) | 4 (≈ 7.36 µg/mL) | 4 (≈ 7.36 µg/mL) | 2 (≈ 3.68 µg/mL) | 2 (≈ 3.68 µg/mL) | 4 (≈ 7.36 µg/mL) | 4 (≈ 7.36 µg/mL) | 16 (≈ 29.4 µg/mL) | 2 (≈ 3.68 µg/mL) | CC(C)C[C@H](NC(=O)[C@H](CCCNC(=N)N)NC(=O)[C@H](Cc1c[nH]c2ccccc12)NC(=O)[C@H](CCCNC(=N)N)NC(=O)[C@@H](NC(=O)[C@H](CCCNC(=N)N)NC(=O)[C@H](Cc1c[nH]c2ccccc12)NC(=O)[C@H](CCCNC(=N)N)NC(=O)[C@H](CC(C)C)NC(=O)[C@H](CCCNC(=N)N)NC(=O)[C@@H](N)Cc1c[nH]c2ccccc12)[C@@H](C)O)C(=O)N[C@@H](CCCNC(=N)N)C(N)=O (H-WRLRWRTRWRLR-NH2) | > 128 | 90.5 | > 90 |
| 1 (≈ 1.95 µg/mL) | 1 (≈ 1.95 µg/mL) | 2 (≈ 3.91 µg/mL) | 4 (≈ 7.82 µg/mL) | 8 (≈ 15.6 µg/mL) | 2 (≈ 3.91 µg/mL) | 4 (≈ 7.82 µg/mL) | 2 (≈ 3.91 µg/mL) | 2 (≈ 3.91 µg/mL) | 8 (≈ 15.6 µg/mL) | 2 (≈ 3.91 µg/mL) | N=C(N)NCCC[C@H](NC(=O)[C@H](Cc1ccccc1)NC(=O)[C@H](CCCNC(=N)N)NC(=O)[C@H](Cc1c[nH]c2ccccc12)NC(=O)[C@H](CCCNC(=N)N)NC(=O)[C@H](Cc1ccccc1)NC(=O)[C@H](CCCNC(=N)N)NC(=O)[C@H](Cc1c[nH]c2ccccc12)NC(=O)[C@H](CCCNC(=N)N)NC(=O)[C@H](Cc1ccccc1)NC(=O)[C@H](CCCNC(=N)N)NC(=O)[C@@H](N)Cc1c[nH]c2ccccc12)C(N)=O (H-WRFRWRFRWRFR-NH2) | 64 | 28.6 | > 90 |
